Source: BindingDB's records for doi:10.7270/Q2NS0S90 (The Scripps Research Institute Molecular Screening Center, 2009)

Target: VIM-2 metallo β-lactamase (Pseudomonas aeruginosa, UniProt Q9K2N0)
Experiment: VIM-2 inhibitor FRET-based artefact check, dose response, artefact control for selective VIM-2 inhibitor project, biochemical, FRET readout, CCF2 substrate (AID 1926)

SMILES	IC50
COc1ccc(OC)c(C2C(C(=O)c3ccco3)C(=O)C(=O)N2Cc2cccnc2)c1 (configuration not stated) [2-(2,5-dimethoxyphenyl)-3-(furan-2-carbonyl)-4-hydroxy-1-(pyridin-3-ylmethyl)-2H-pyrrol-5-one]	700 nM
O=C1C(=O)N(Cc2cccnc2)C(c2ccccn2)C1C(=O)c1cccs1 (configuration not stated) [3-hydroxy-5-(2-pyridinyl)-1-(3-pyridinylmethyl)-4-(2-thienylcarbonyl)-1,5-dihydro-2H-pyrrol-2-one]	4830 nM
COc1ccc(C(=O)C2C(=O)C(=O)N(Cc3ccco3)C2c2cc(OC)ccc2OC)cc1 (configuration not stated) [(4E)-5-(2,5-dimethoxyphenyl)-1-(2-furanylmethyl)-4-[hydroxy-(4-methoxyphenyl)methylidene]pyrrolidine-2,3-dione]	5610 nM
O=C1C(=O)N(Cc2cccnc2)C(c2ccccn2)C1C(=O)c1ccc(F)cc1 (configuration not stated) [(4Z)-4-[(4-fluorophenyl)-hydroxy-methylene]-5-(2-pyridyl)-1-(3-pyridylmethyl)pyrrolidine-2,3-quinone]	941 nM
O=C1C(=O)N(Cc2cccnc2)C(c2ccccn2)C1C(=O)c1ccccc1 (configuration not stated) [(4Z)-4-[hydroxy(phenyl)methylene]-5-(2-pyridyl)-1-(3-pyridylmethyl)pyrrolidine-2,3-quinone]	2170 nM
COc1cc(OC)c(OC)cc1C=NNC(=O)Cc1c(C)[nH][nH]c1=O [MLS000555854]	1460 nM
COc1ccc(OC)c(C=NNC(=O)Cc2c(C)[nH][nH]c2=O)c1 [SMR000147372]	2130 nM
